Several values for one entry are separate records, joined by “and”; a condition that tells them apart may be missing. Equal values may be shown once. Inconclusive results and toxic doses are left out. No stated cut-off is given here; in the data, active means T/C of 150% or more; inactive means T/C below 125%.
Tested on: L1210 leukemia ip in BDF1 mice, survival T/C
Test: NCI In Vivo Anticancer Drug Screen. Data for tumor model L1210 Leukemia (intraperitoneal) in B6D2F1 (BDF1) mice
Conditions: endpoint: mean survival time, higher = longer survival
Procedure, shortened: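 Ratio derived from survival: compound-dosed mice over vehicle-dosed mice, all bearing a transplantable tumor.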

[1] = dose: 50.0 mg/kg/injection, schedule: Q04DX003 (ip), vehicle: saline
[2] = dose: 100.0 mg/kg/injection, schedule: Q01DX009 (ip), vehicle: saline
[3] = dose: 100.0 mg/kg/injection, schedule: Q04DX003 (ip), vehicle: saline
[4] = dose: 200.0 mg/kg/injection, schedule: Q01DX009 (ip), vehicle: saline
[5] = dose: 200.0 mg/kg/injection, schedule: Q04DX003 (ip), vehicle: saline
[6] = dose: 400.0 mg/kg/injection, schedule: Q01DX009 (ip), vehicle: saline
[7] = dose: 400.0 mg/kg/injection, schedule: Q04DX003 (ip), vehicle: saline
[8] = dose: 100.0 mg/kg/injection, schedule: Q01DX009 (ip), vehicle: Klucel (hydroxypropylcellulose) (HPC)
[9] = dose: 100.0 mg/kg/injection, schedule: Q04DX003 (ip), vehicle: Klucel (hydroxypropylcellulose) (HPC)
[10] = dose: 200.0 mg/kg/injection, schedule: Q01DX009 (ip), vehicle: Klucel (hydroxypropylcellulose) (HPC)
[11] = dose: 200.0 mg/kg/injection, schedule: Q04DX003 (ip), vehicle: Klucel (hydroxypropylcellulose) (HPC)
[12] = dose: 400.0 mg/kg/injection, schedule: Q04DX003 (ip), vehicle: Klucel (hydroxypropylcellulose) (HPC)
[13] = dose: 25.0 mg/kg/injection, schedule: Q04DX003 (ip), vehicle: saline
[14] = dose: 100.0 mg/kg/injection, schedule: Q01DX009 (ip), vehicle: saline with Tween-80
[15] = dose: 200.0 mg/kg/injection, schedule: Q01DX009 (ip), vehicle: saline with Tween-80
[16] = dose: 400.0 mg/kg/injection, schedule: Q01DX009 (ip), vehicle: saline with Tween-80
[17] = dose: 100.0 mg/kg/injection, schedule: Q01DX001 (ip), vehicle: saline with Tween-80
[18] = dose: 200.0 mg/kg/injection, schedule: Q01DX001 (ip), vehicle: saline with Tween-80
[19] = dose: 400.0 mg/kg/injection, schedule: Q01DX001 (ip), vehicle: saline with Tween-80
[20] = dose: 50.0 mg/kg/injection, schedule: Q01DX001 (ip), vehicle: saline
[21] = dose: 100.0 mg/kg/injection, schedule: Q01DX001 (ip), vehicle: saline
[22] = dose: 200.0 mg/kg/injection, schedule: Q01DX001 (ip), vehicle: saline
[23] = dose: 400.0 mg/kg/injection, schedule: Q01DX001 (ip), vehicle: saline
[24] = dose: 100.0 mg/kg/injection, schedule: Q04DX003 (ip), vehicle: saline with Tween-80
[25] = dose: 200.0 mg/kg/injection, schedule: Q04DX003 (ip), vehicle: saline with Tween-80
[26] = dose: 400.0 mg/kg/injection, schedule: Q04DX003 (ip), vehicle: saline with Tween-80

Measured: T/C

Nc1n[nH]c(N)n1.[Co]
inactive: [1] 103 % of control | [2] 100 % of control | [3] 100 % of control | [4] 94 % of control | [5] 108 % of control | [6] 107 % of control | [7] 105 % of control

CCCCOP(=O)(CCl)OCCCC
inactive: [8] 98 % of control | [9] 97 % of control | [10] 103 % of control | [11] 97 % of control | [12] 95 % of control

O=C1C2C3CCC(O3)C2C(=O)N1Cc1ccccc1CBr (stereo unspecified)
inactive: dose: 100.0 mg/kg/injection, schedule: Q04DX003 (ip), vehicle: carboxymethylcellulose (CMC) 95 % of control | dose: 200.0 mg/kg/injection, schedule: Q04DX003 (ip), vehicle: carboxymethylcellulose (CMC) 98 % of control

NC1CCC(CC2CC3CCC2C3)CC1 (stereo unspecified)
inactive: dose: 12.5 mg/kg/injection, schedule: Q01DX009 (ip), vehicle: saline 98 % of control | dose: 25.0 mg/kg/injection, schedule: Q01DX009 (ip), vehicle: saline 91 % of control | [13] 100 % of control | dose: 50.0 mg/kg/injection, schedule: Q01DX009 (ip), vehicle: saline 100 % of control | [1] 96 % of control | [2] 90 % of control | [3] 96 % of control

Cc1ccc(C(=O)/C=C/c2ccc(Cl)c(Cl)c2)c(C)c1
inactive: [14] 92 % of control | dose: 100.0 mg/kg/injection, schedule: Q04DX002 (ip), vehicle: saline with Tween-80 98 % of control | [15] 95 % of control | dose: 200.0 mg/kg/injection, schedule: Q04DX002 (ip), vehicle: saline with Tween-80 91 % of control | [16] 109 % of control | dose: 400.0 mg/kg/injection, schedule: Q04DX002 (ip), vehicle: saline with Tween-80 91 % of control

O=C1NNC(c2ccccc2)C1c1ccccc1 (stereo unspecified)
inactive: dose: 100.0 mg/kg/injection, schedule: Q01DX001 (ip), vehicle: carboxymethylcellulose (CMC) 93 % of control | dose: 200.0 mg/kg/injection, schedule: Q01DX001 (ip), vehicle: carboxymethylcellulose (CMC) 95 % of control | dose: 400.0 mg/kg/injection, schedule: Q01DX001 (ip), vehicle: carboxymethylcellulose (CMC) 97 % of control

CC(=O)NC1CON=C1OS(=O)(=O)c1ccc(C)cc1 (stereo unspecified)
inactive: [17] 89 % of control | [18] 89 % of control | [19] 100 % of control

COc1nc(OC)c(OP(=O)(OC)OC)c(OC)n1
inactive: [20] 95 % of control | [21] 98 % of control | [22] 89 % of control | [23] 95 % of control

c1ccc(CSc2nccc(NN=C3CCCCC3)n2)cc1
inactive: dose: 25.0 mg/kg/injection, schedule: Q01DX001 (ip), vehicle: DMSO 90 % of control | dose: 50.0 mg/kg/injection, schedule: Q01DX001 (ip), vehicle: DMSO 88 % of control | dose: 75.0 mg/kg/injection, schedule: Q01DX009 (ip), vehicle: DMSO 92 % of control | dose: 100.0 mg/kg/injection, schedule: Q01DX001 (ip), vehicle: DMSO 88 % of control | dose: 150.0 mg/kg/injection, schedule: Q01DX009 (ip), vehicle: DMSO 94 % of control | dose: 200.0 mg/kg/injection, schedule: Q01DX001 (ip), vehicle: DMSO 91 % of control | dose: 400.0 mg/kg/injection, schedule: Q01DX001 (ip), vehicle: DMSO 100 % of control

CCCCOC(=O)C(C)OC(=O)CCC (stereo unspecified)
inactive: [8] 102 % of control | [9] 99 % of control | [10] 90 % of control | [11] 107 % of control | dose: 400.0 mg/kg/injection, schedule: Q01DX009 (ip), vehicle: Klucel (hydroxypropylcellulose) (HPC) 102 % of control | [12] 102 % of control

COC(=O)C(N)CCl (stereo unspecified)
inactive: dose: 100.0 mg/kg/injection, schedule: Q01DX001 (ip), vehicle: steriod suspending solution 101 % of control | [2] 93 % of control | [3] 106 % of control | dose: 200.0 mg/kg/injection, schedule: Q01DX001 (ip), vehicle: steriod suspending solution 95 % of control | [4] 100 % of control | [5] 102 % of control | dose: 400.0 mg/kg/injection, schedule: Q01DX001 (ip), vehicle: steriod suspending solution 106 % of control | [6] 101 % of control | [7] 104 % of control

CC(=O)N1CCn2nccc21
inactive: dose: 100.0 mg/kg/injection, schedule: Q01DX009 (ip), vehicle: water 103 % of control | dose: 100.0 mg/kg/injection, schedule: Q04DX003 (ip), vehicle: water 97 % of control | dose: 200.0 mg/kg/injection, schedule: Q01DX009 (ip), vehicle: water 112 % of control | dose: 200.0 mg/kg/injection, schedule: Q04DX003 (ip), vehicle: water 106 % of control | dose: 240.0 mg/kg/injection, schedule: Q01DX009 (ip), vehicle: saline 109 % of control | dose: 240.0 mg/kg/injection, schedule: Q01DX009 (ip), vehicle: water 110 % of control | [6] 122 % of control | dose: 400.0 mg/kg/injection, schedule: Q04DX003 (ip), vehicle: water 106 % of control | dose: 666.0 mg/kg/injection, schedule: Q01DX009 (ip), vehicle: saline 122 % of control | dose: 666.0 mg/kg/injection, schedule: Q01DX009 (ip), vehicle: water 90 % of control

COC(=O)C1C=C2c3cccc4[nH]cc(c34)CC2N(C)C1 (stereo unspecified)
inactive: [2] 105 % of control

CCOC(=O)C1CN(c2ccccc2)C(=O)C1=O (stereo unspecified)
inactive: [20] 104 % of control | [21] 98 % of control | [22] 96 % of control | [23] 98 % of control

CCOC(=O)Nc1ccc([N+](=O)[O-])cc1[N+](=O)[O-]
inactive: [17] 101 % of control | [24] 100 % of control | [18] 98 % of control | [25] 93 % of control | [19] 95 % of control | [26] 98 % of control

O=S(=O)(c1ccc(Cl)cc1)N1CCN(S(=O)(=O)c2ccc(Cl)cc2)C1
inactive: [2] 97 % of control | [3] 95 % of control | [4] 94 % of control | [5] 92 % of control | [6] 92 % of control | [7] 103 % of control

COC(=O)/C=C(\C(=O)OC)N1CCCCC1
inactive: dose: 18.75 mg/kg/injection, schedule: Q01DX009 (ip), vehicle: saline with Tween-80 98 % of control | dose: 37.5 mg/kg/injection, schedule: Q01DX009 (ip), vehicle: saline with Tween-80 101 % of control | dose: 75.0 mg/kg/injection, schedule: Q01DX009 (ip), vehicle: saline with Tween-80 91 % of control | [14] 107 % of control

Cc1ccc(C2(C#N)CC2)cc1
inactive: [14] 98 % of control | [24] 108 % of control | [15] 98 % of control | [25] 104 % of control | [16] 112 % of control | [26] 104 % of control

OCC(F)(F)C(F)F
inactive: [20] 91 % of control | [21] 94 % of control | [22] 91 % of control | [23] 100 % of control

C1C2C1C1C3C2C2C4C5CC5C5C2C1C1C5C4C31 (stereo unspecified)
inactive: [20] 106 % of control | [21] 112 % of control | [22] 122 % of control | [23] 106 % of control

Cc1cc(Cl)nc(Nc2nc3cc(Cl)c(Cl)cc3[nH]2)n1
inactive: dose: 12.5 mg/kg/injection, schedule: Q01DX009 (ip), vehicle: acetone 87 % of control and 92 % of control | dose: 12.5 mg/kg/injection, schedule: Q04DX003 (ip), vehicle: saline 95 % of control and 112 % of control | dose: 25.0 mg/kg/injection, schedule: Q01DX009 (ip), vehicle: acetone 87 % of control | [13] 94 % of control and 95 % of control | dose: 50.0 mg/kg/injection, schedule: Q01DX009 (ip), vehicle: acetone 88 % of control | [1] 94 % of control and 101 % of control | [21] 91 % of control | [22] 93 % of control | [23] 91 % of control

Nc1nc(-c2ccccc2)c(CC(=O)O)s1
inactive: [9] 93 % of control | [11] 100 % of control | [12] 96 % of control

Reference: PubChem BioAssay AID248 (DTP/NCI, 2004)
